Experimental data taken from article doi:10.1101/2025.01.28.635346v1 (bioRxiv, 2025).
Bridge positions count the residues as written; N and C are the ends. Peptide text beside a SMILES is read from it.

Experiments:
integrin αvβ6 [1] = molecular target: T1, integrin αvβ6 (Homo sapiens, UniProt P06756+P18564); assay: AlphaLISA competition assay vs LAP, biotinylated αvβ6; format: binding
integrin αvβ8 [2] = molecular target: T2, integrin αvβ8 (Homo sapiens, UniProt P06756+P26012); assay: AlphaLISA competition assay vs LAP, biotinylated αvβ8; format: binding
integrin αvβ6 [3] = molecular target: T1, integrin αvβ6; assay: ELISA competition assay, integrin αvβ6 binding to LAP
integrin αvβ8 [4] = molecular target: T2, integrin αvβ8; assay: ELISA competition assay, integrin αvβ8 binding to LAP
[5] = αvβ6 IC50, ELISA competition vs LAP, mean, n ≥ 3

IC50 (integrin αvβ6 [3]) [nM]	SMILES	IC50 (integrin αvβ6 [1]) [nM]	IC50 (integrin αvβ8 [2]) [nM]	IC50 (integrin αvβ6 [3]; [5]) [nM]	IC50 (integrin αvβ8 [4]) [nM]
–	CC[C@H](C)[C@H](NC(=O)[C@@H]1CCCN1C(=O)[C@H](CCSC)NC(=O)[C@H](CC(=O)O)NC(=O)CNC(=O)[C@H](CCCNC(=N)N)NC(=O)[C@@H](NC(=O)[C@H](Cc1ccccc1)NC(=O)[C@H](Cc1ccc(O)cc1)NC(=O)[C@@H]1CCC(=O)NCC(=O)NCC(=O)N[C@@H](C)C(=O)NCC(=O)N[C@@H](Cc2c[nH]cn2)C(=O)N[C@@H](C(C)C)C(=O)N2CCC[C@H]2C(=O)N1)C(C)C)C(=O)N[C@@H](CO)C(=O)N[C@@H](Cc1ccccc1)C(=O)N[C@@H](Cc1ccc(O)cc1)C(=O)NCC(=O)O [lassotide 5] (GGAGHVPEYFVRGDMPISFYG-OH; lactam N-8; C-terminus assumed)	280	259	–	–
–	CC(C)C[C@H](NC(=O)[C@H](CC(=O)O)NC(=O)CNC(=O)[C@H](CCCNC(=N)N)NC(=O)[C@@H](NC(=O)[C@H](Cc1ccccc1)NC(=O)[C@H](Cc1ccc(O)cc1)NC(=O)[C@@H]1CCC(=O)NCC(=O)NCC(=O)N[C@@H](C)C(=O)NCC(=O)N[C@@H](Cc2c[nH]cn2)C(=O)N[C@@H](C(C)C)C(=O)N2CCC[C@H]2C(=O)N1)C(C)C)C(=O)N[C@@H](Cc1ccc(O)cc1)C(=O)N[C@@H](CO)C(=O)N[C@@H](Cc1ccccc1)C(=O)N[C@@H](Cc1ccc(O)cc1)C(=O)NCC(=O)O [lassotide 25] (GGAGHVPEYFVRGDLYSFYG-OH; lactam N-8; C-terminus assumed)	295	205	–	–
–	CC[C@H](C)[C@@H]1NC(=O)[C@H](CO)NC(=O)CC[C@@H](C(=O)N[C@@H](CCCNC(=N)N)C(=O)NCC(=O)N[C@@H](CC(=O)O)C(=O)N[C@@H](CC(C)C)C(=O)N[C@@H](CCC(N)=O)C(=O)N[C@H](C(=O)N[C@@H](Cc2ccc(O)cc2)C(=O)N[C@@H](Cc2c[nH]c3ccccc23)C(=O)N2CCC[C@H]2C(=O)O)[C@@H](C)O)NC(=O)[C@H](CCCNC(=N)N)NC(=O)[C@H](CC(C)C)NC(=O)CNC(=O)[C@H](CO)NC(=O)[C@H](CC(=O)O)NC(=O)CNC1=O [lassotide 18] (SIGDSGLRERGDLQTYWP-OH; lactam N-9; C-terminus assumed)	–	–	3200	2470
0.7	CC(C)C[C@H](NC(=O)[C@H](CC(=O)O)NC(=O)CNC(=O)[C@H](CCCNC(=N)N)NC(=O)[C@H](CCC(N)=O)NC(=O)[C@H](Cc1ccccc1)NC(=O)[C@H](Cc1ccc(O)cc1)NC(=O)[C@@H]1CCC(=O)NCC(=O)NCC(=O)N[C@@H]([C@@H](C)O)C(=O)NCC(=O)N[C@@H](Cc2c[nH]cn2)C(=O)N[C@@H](C(C)C)C(=O)N2CCC[C@H]2C(=O)N1)C(=O)N[C@@H](CCC(N)=O)C(=O)N[C@@H](CO)C(=O)N[C@@H](Cc1ccccc1)C(=O)N[C@@H](Cc1ccc(O)cc1)C(=O)NCC(=O)O [lassotide 45] (GGTGHVPEYFQRGDLQSFYG-OH; lactam N-8; C-terminus assumed)	–	–	–	1
–	CC[C@H](C)[C@@H]1NC(=O)[C@H](CO)NC(=O)CNC(=O)[C@H](CCCNC(=N)N)NC(=O)CNC(=O)CNC(=O)CC[C@@H](C(=O)N[C@@H](Cc2ccc(O)cc2)C(=O)N[C@@H](Cc2ccccc2)C(=O)N[C@H](C(=O)N[C@@H](CCCNC(=N)N)C(=O)NCC(=O)N[C@@H](CC(=O)O)C(=O)N[C@@H](CC(C)C)C(=O)N[C@@H](CCC(N)=O)C(=O)N[C@@H](CO)C(=O)N[C@@H](Cc2ccccc2)C(=O)N[C@@H](Cc2ccc(O)cc2)C(=O)N[C@@H](CCCCN)C(=O)O)C(C)C)NC(=O)[C@@H]2CCCN2C1=O [lassotide 43] (GGRGSIPEYFVRGDLQSFYK-OH; lactam N-8; C-terminus assumed)	–	–	1.2	5.1
–	CC(C)C[C@H](NC(=O)[C@H](CC(=O)O)NC(=O)CNC(=O)[C@H](CCCNC(=N)N)NC(=O)[C@@H](NC(=O)[C@H](Cc1ccccc1)NC(=O)[C@H](Cc1ccc(O)cc1)NC(=O)[C@@H]1CCC(=O)NCC(=O)NCC(=O)N[C@@H](CCCNC(=N)N)C(=O)NCC(=O)N[C@@H](CO)C(=O)N[C@@H](C(C)C)C(=O)N2CCC[C@H]2C(=O)N1)C(C)C)C(=O)N[C@@H](CCC(N)=O)C(=O)N[C@@H](CO)C(=O)N[C@@H](Cc1ccccc1)C(=O)N[C@@H](Cc1ccc(O)cc1)C(=O)NCC(=O)O [lassotide 39] (GGRGSVPEYFVRGDLQSFYG-OH; lactam N-8; C-terminus assumed)	–	–	3.1	5.1
–	CC[C@H](C)[C@H](NC(=O)[C@H](CC(C)C)NC(=O)[C@H](CC(=O)O)NC(=O)CNC(=O)[C@H](CCCNC(=N)N)NC(=O)[C@H](C)NC(=O)[C@H](Cc1ccccc1)NC(=O)[C@H](Cc1ccc(O)cc1)NC(=O)[C@@H]1CCC(=O)NCC(=O)NCC(=O)N[C@@H](C)C(=O)NCC(=O)N[C@@H](Cc2c[nH]cn2)C(=O)N[C@@H](C(C)C)C(=O)N2CCC[C@H]2C(=O)N1)C(=O)N[C@@H](CO)C(=O)N[C@@H](Cc1ccccc1)C(=O)N[C@@H](Cc1ccc(O)cc1)C(=O)NCC(=O)O [lassotide 19] (GGAGHVPEYFARGDLISFYG-OH; lactam N-8; C-terminus assumed)	–	–	66	24
–	CC[C@H](C)[C@H](NC(=O)[C@H](CC(C)C)NC(=O)[C@H](CC(=O)O)NC(=O)CNC(=O)[C@H](CCCNC(=N)N)NC(=O)[C@@H](NC(=O)[C@H](Cc1ccccc1)NC(=O)[C@H](Cc1ccc(O)cc1)NC(=O)[C@@H]1CCC(=O)NCC(=O)NCC(=O)N[C@@H](CC(C)C)C(=O)NCC(=O)N[C@@H](Cc2c[nH]cn2)C(=O)N[C@@H](C(C)C)C(=O)N2CCC[C@H]2C(=O)N1)C(C)C)C(=O)N[C@@H](CO)C(=O)N[C@@H](Cc1ccccc1)C(=O)N[C@@H](Cc1ccc(O)cc1)C(=O)NCC(=O)O [lassotide 32] (GGLGHVPEYFVRGDLISFYG-OH; lactam N-8; C-terminus assumed)	–	–	53	32
–	CC[C@H](C)[C@H](NC(=O)[C@H](CC(C)C)NC(=O)[C@H](CC(=O)O)NC(=O)CNC(=O)[C@H](CCCNC(=N)N)NC(=O)[C@@H](NC(=O)[C@H](Cc1ccccc1)NC(=O)[C@H](Cc1ccc(O)cc1)NC(=O)[C@@H]1CCC(=O)NCC(=O)NCC(=O)N[C@@H](CCCCN)C(=O)NCC(=O)N[C@@H](Cc2c[nH]cn2)C(=O)N[C@@H](C(C)C)C(=O)N2CCC[C@H]2C(=O)N1)C(C)C)C(=O)N[C@@H](CO)C(=O)N[C@@H](Cc1ccccc1)C(=O)N[C@@H](Cc1ccc(O)cc1)C(=O)NCC(=O)O [lassotide 28] (GGKGHVPEYFVRGDLISFYG-OH; lactam N-8; C-terminus assumed)	–	–	44	48
–	CC[C@H](C)[C@@H]1NC(=O)[C@H](Cc2c[nH]cn2)NC(=O)CNC(=O)[C@H]([C@@H](C)O)NC(=O)CNC(=O)CNC(=O)CC[C@@H](C(=O)N[C@@H](Cc2ccc(O)cc2)C(=O)N[C@@H](Cc2ccccc2)C(=O)N[C@@H](CCC(N)=O)C(=O)N[C@@H](CCCNC(=N)N)C(=O)NCC(=O)N[C@@H](CC(=O)O)C(=O)N[C@@H](CC(C)C)C(=O)N[C@@H](CCC(N)=O)C(=O)N[C@@H](CO)C(=O)N[C@@H](Cc2ccccc2)C(=O)N[C@@H](Cc2ccc(O)cc2)C(=O)NCC(=O)O)NC(=O)[C@@H]2CCCN2C1=O [lassotide 46] (GGTGHIPEYFQRGDLQSFYG-OH; lactam N-8; C-terminus assumed)	–	–	2.1	1.3
